Data reported in patent US11345681B1, “Inhibitors of fibroblast growth factor receptor kinases” (Kinnate Biopharma Inc., priority 2020, dated 2022).

Molecular target: Wild type FGFR2 (Homo sapiens (Human), UniProt P21802)
Test: FGFR2 kinase assay (fluorescence-based microfluidic mobility shift assay)
Type: biochemical
Conditions: wild type FGFR2 0.06 nM, 100 μM ATP, 80 minutes at room temperature; class symbols

Sequence of Wild type FGFR2 (P21802 22-821): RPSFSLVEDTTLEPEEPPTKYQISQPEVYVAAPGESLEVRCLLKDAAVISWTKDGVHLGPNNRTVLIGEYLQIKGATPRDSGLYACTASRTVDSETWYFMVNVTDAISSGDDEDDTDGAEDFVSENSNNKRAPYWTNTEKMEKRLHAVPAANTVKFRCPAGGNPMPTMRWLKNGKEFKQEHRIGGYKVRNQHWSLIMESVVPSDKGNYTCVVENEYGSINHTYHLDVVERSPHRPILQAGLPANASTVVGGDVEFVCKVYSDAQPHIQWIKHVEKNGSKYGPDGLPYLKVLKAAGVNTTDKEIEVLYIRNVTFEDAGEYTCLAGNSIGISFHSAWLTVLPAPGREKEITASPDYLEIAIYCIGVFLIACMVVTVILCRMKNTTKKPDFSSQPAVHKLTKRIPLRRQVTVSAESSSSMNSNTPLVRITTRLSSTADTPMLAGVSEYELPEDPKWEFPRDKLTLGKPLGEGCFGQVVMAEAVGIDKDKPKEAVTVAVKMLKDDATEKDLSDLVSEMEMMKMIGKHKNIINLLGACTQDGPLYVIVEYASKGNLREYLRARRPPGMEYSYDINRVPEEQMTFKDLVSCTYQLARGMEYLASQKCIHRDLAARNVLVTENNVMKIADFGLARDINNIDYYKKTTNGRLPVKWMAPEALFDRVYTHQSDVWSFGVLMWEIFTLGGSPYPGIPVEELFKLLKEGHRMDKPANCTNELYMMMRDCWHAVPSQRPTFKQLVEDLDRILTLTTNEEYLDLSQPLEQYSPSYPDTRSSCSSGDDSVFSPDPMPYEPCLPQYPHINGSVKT

Compound | IC50 [nM]
C=CC(=O)N1C[C@@H](n2nc(C#Cc3cc4ncn(C5CC5)c4cc3F)c(C(N)=O)c2N)C[C@@H]1COC(F)F [Example 211, 5-Amino-3-[2-(1-cyclopropyl-6-fluoro-1,3-benzodiazol-5-yl)ethynyl]-1-[(3S,5R)-5-[(difluoromethoxy)methyl]-1-(prop-2-enoyl)pyrrolidin-3-yl]pyrazole-4-carboxamide] | ≤ 100
C=CC(=O)N1C[C@@H](n2nc(C#Cc3ccc4c(c3)ncn4C3CC3)c(C(N)=O)c2N)C[C@@H]1COC(F)F [Example 212, 5-Amino-3-[2-(1-cyclopropyl-1,3-benzodiazol-5-yl)ethynyl]-1-[(3S,5R)-5-[(difluoromethoxy)methyl]-1-(prop-2-enoyl)pyrrolidin-3-yl]pyrazole-4-carboxamide] | ≤ 100
C=CC(=O)N1C[C@@H](n2nc(C#Cc3cc4nc(C)n(C5CC5)c4cc3Cl)c(C(N)=O)c2N)C[C@@H]1COC [Example 214, 5-Amino-3-[2-(6-chloro-1-cyclopropyl-2-methyl-1,3-benzodiazol-5-yl)ethynyl]-1-[(3S,5R)-5-(methoxymethyl)-1-(prop-2-enoyl)pyrrolidin-3-yl]pyrazole-4-carboxamide] | ≤ 100
C=CC(=O)N1C[C@@H](n2nc(C#Cc3cc4ncn(C5CC5)c4cc3Cl)c(C(N)=O)c2NC)C[C@@H]1[C@@H](C)O [Example 222, 3-[2-(6-Chloro-1-cyclopropyl-1,3-benzodiazol-5-yl)ethynyl]-1-[(3S,5R)-5-[(1R)-1-hydroxyethyl]-1-(prop-2-enoyl)pyrrolidin-3-yl]-5-(methylamino)pyrazole-4-carboxamide] | ≤ 100
C=CC(=O)N1C[C@@H](n2nc(C#Cc3cc4ncn(C5CC5)c4cc3Cl)c(C(N)=O)c2NC)C[C@@H]1[C@H](C)O [Example 223, 3-[2-(6-chloro-1-cyclopropyl-1,3-benzodiazol-5-yl)ethynyl]-1-[(3S,5R)-5-[(1S)-1-hydroxyethyl]-1-(prop-2-enoyl)pyrrolidin-3-yl]-5-(methylamino)pyrazole-4-carboxamide] | ≤ 100
CNc1c(C(N)=O)c(C#Cc2cc3nc(C)n(C4CC4)c3cc2F)nn1[C@H]1C[C@H](COC)N(C(=O)C#CC(C)(C)O)C1 [Example 227, 3-[2-(1-Cyclopropyl-6-fluoro-2-methyl-1,3-benzodiazol-5-yl)ethynyl]-1-[(3S,5R)-1-(4-hydroxy-4-methylpent-2-ynoyl)-5-(methoxymethyl)pyrrolidin-3-yl]-5 (methylamino)pyrazole-4-carboxamide] | ≤ 100
C=CC(=O)N1C[C@@H](n2nc(C#Cc3cc4ncn(C5CC5)c4cc3F)c(C(N)=O)c2N)C[C@@H]1[C@@H](C)O [Example 240, 5-Amino-3-[2-(1-cyclopropyl-6-fluoro-1,3-benzodiazol-5-yl)ethynyl]-1-[(3S,5R)-5-[(1R)-1-hydroxyethyl]-1-(prop-2-enoyl)pyrrolidin-3-yl]pyrazole-4-carboxamide] | ≤ 100
C=CC(=O)N1C[C@@H](n2nc(C#Cc3cc4ncn(C5CC5)c4cc3F)c(C(N)=O)c2N)C[C@@H]1[C@H](C)O [Example 241, 5-Amino-3-[2-(1-cyclopropyl-6-fluoro-1,3-benzodiazol-5-yl)ethynyl]-1-[(3S,5R)-5-[(1S)-1-hydroxyethyl]-1-(prop-2-enoyl)pyrrolidin-3-yl]pyrazole-4-carboxamide] | ≤ 100
C=CC(=O)N1C[C@@H](n2nc(C#Cc3cc4nc(C)n(C5CC5)c4cc3Cl)c(C(N)=O)c2N)C[C@@H]1[C@@H](C)O [Example 244, 1-((3S,5R)-1-Acryloyl-5-((R)-1-hydroxyethyl)pyrrolidin-3-yl)-5-amino-3-((6-chloro-1-cyclopropyl-2-methyl-1H-benzo[d]imidazol-5-yl)ethynyl)-1H-pyrazole-4-carboxamide] | ≤ 100
C=CC(=O)N1C[C@@H](n2nc(C#Cc3cc4nc(C)n(C5CC5)c4cc3Cl)c(C(N)=O)c2N)C[C@@H]1[C@H](C)O [Example 245, 1-((3S,5R)-1-Acryloyl-5-((S)-1-hydroxyethyl)pyrrolidin-3-yl)-5-amino-3-((6-chloro-1-cyclopropyl-2-methyl-1H-benzo[d]imidazol-5-yl)ethynyl)-1H-pyrazole-4-carboxamide] | ≤ 100
C=CC(=O)N1C[C@@H](n2nc(C#Cc3cc4nc(C)n(C5CC5)c4cc3F)c(C(N)=O)c2N)C[C@@H]1[C@@H](C)O [Example 246] | ≤ 100
C=CC(=O)N1C[C@@H](n2nc(C#Cc3cc4nc(C)n(C5CC5)c4cc3F)c(C(N)=O)c2N)C[C@@H]1[C@H](C)O [Example 247, 5-Amino-3-[2-(1-cyclopropyl-6-fluoro-2-methyl-1,3-benzodiazol-5-yl)ethynyl]-1-[(3S,5R)-5-[(1S)-1-hydroxyethyl]-1-(prop-2-enoyl)pyrrolidin-3-yl]pyrazole-4-carboxamide] | ≤ 100

Second part, the compound after the results:

IC50 [nM] | Compound
≤ 100 | C=CC(=O)N1C[C@@H](n2nc(C#Cc3c(F)cc4c(ncn4C4CC4)c3F)c(C(N)=O)c2N)C[C@@H]1COC(F)F [Example 215, 5-Amino-3-[2-(1-cyclopropyl-4,6-difluoro-1,3-benzodiazol-5-yl)ethynyl]-1-[(3S,5R)-5-[(difluoromethoxy)methyl]-1-(prop-2-enoyl)pyrrolidin-3-yl]pyrazole-4-carboxamide]
≤ 100 | C=CC(=O)N1C[C@@H](n2nc(C#Cc3cc4nc(C)n(C5CC5)c4cc3Cl)c(C(N)=O)c2NC)C[C@@H]1[C@@H](C)O [Example 220, 1-((3S,5R)-1-Acryloyl-5-((R)-1-hydroxyethyl)pyrrolidin-3-yl)-3-((6-chloro-1-cyclopropyl-2-methyl-1H-benzo[d]imidazol-5-yl)ethynyl)-5-(methylamino)-1H-pyrazole-4-carboxamide]
≤ 100 | C=CC(=O)N1C[C@@H](n2nc(C#Cc3cc4nc(C)n(C5CC5)c4cc3Cl)c(C(N)=O)c2NC)C[C@@H]1[C@H](C)O [Example 221, 1-((3S,5R)-1-Acryloyl-5-((S)-1-hydroxyethyl)pyrrolidin-3-yl)-3-((6-chloro-1-cyclopropyl-2-methyl-1H-benzo[d]imidazol-5-yl)ethynyl)-5-(methylamino)-1H-pyrazole-4-carboxamide]
≤ 100 | C=CC(=O)N1C[C@@H](n2nc(C#Cc3cc4nc(C)n(C5CC5)c4cc3F)c(C(N)=O)c2NC)C[C@@H]1[C@@H](C)O [Example 224, 3-[2-(1-Cyclopropyl-6-fluoro-2-methyl-1,3-benzodiazol-5-yl)ethynyl]-1-[(3S,5R)-5-[(1R)-1-hydroxyethyl]-1-(prop-2-enoyl)pyrrolidin-3-yl]-5-(methylamino)pyrazole-4-carboxamide]
≤ 100 | C=CC(=O)N1C[C@@H](n2nc(C#Cc3cc4nc(C)n(C5CC5)c4cc3F)c(C(N)=O)c2NC)C[C@@H]1[C@H](C)O [Example 225, 3-[2-(1-Cyclopropyl-6-fluoro-2-methyl-1,3-benzodiazol-5-yl)ethynyl]-1-[(3S,5R)-5-[(1S)-1-hydroxyethyl]-1-(prop-2-enoyl)pyrrolidin-3-yl]-5-(methylamino)pyrazole-4-carboxamide]
≤ 100 | CNc1c(C(N)=O)c(C#Cc2cc3nc(C)n(C4CC4)c3cc2Cl)nn1[C@H]1C[C@H](COC)N(C(=O)C#CC(C)(C)O)C1 [Example 228, 3-[2-(6-Chloro-1-cyclopropyl-2-methyl-1,3-benzodiazol-5-yl)ethynyl]-1-[(3S,5R)-1-(4-hydroxy-4-methylpent-2-ynoyl)-5-(methoxymethyl)pyrrolidin-3-yl]-5-(methylamino)pyrazole-4-carboxamide]
≤ 100 | C=CC(=O)N1C[C@@H](n2nc(C#Cc3cc4ncn(C5CCC5)c4cc3Cl)c(C(N)=O)c2NC)C[C@@H]1COC [Example 232, 3-[2-(6-chloro-1-cyclobutyl-1,3-benzodiazol-5-yl)ethynyl]-1-[(3S,5R)-5-(methoxymethyl)-1-(prop-2-enoyl)pyrrolidin-3-yl]-5-(methylamino)pyrazole-4-carboxamide]
≤ 100 | C=CC(=O)N1C[C@@H](n2nc(C#Cc3cc4nc(C)n(C5CCC5)c4cc3Cl)c(C(N)=O)c2NC)C[C@@H]1COC [Example 233, 1-((3S,5R)-1-Acryloyl-5-(methoxymethyl)pyrrolidin-3-yl)-3-((6-chloro-1-cyclobutyl-2-methyl-1H-benzo[d]imidazol-5-yl)ethynyl)-5-(methylamino)-1H-pyrazole-4-carboxamide]
≤ 100 | C=CC(=O)N1C[C@@H](n2nc(C#Cc3cc4ncn(C5COC5)c4cc3F)c(C(N)=O)c2NC)C[C@@H]1COC [Example 234, 3-{2-[6-Fluoro-1-(oxetan-3-yl)-1,3-benzodiazol-5-yl]ethynyl}-1-[(3S,5R)-5-(methoxymethyl)-1-(prop-2-enoyl)pyrrolidin-3-yl]-5-(methylamino)pyrazole-4-carboxamide]
≤ 100 | C=CC(=O)N1C[C@@H](n2nc(C#Cc3cc4ncc(C)cc4cc3F)c(C(N)=O)c2NC)C[C@@H]1COC [Example 236, 3-[2-(6-fluoro-3-methylquinolin-7-yl)ethynyl]-1-[(3S,5R)-5-(methoxymethyl)-1-(prop-2-enoyl)pyrrolidin-3-yl]-5-(methylamino)pyrazole-4-carboxamide]
≤ 100 | C=CC(=O)N1C[C@@H](n2nc(C#Cc3cc4ncn(C5COC5)c4cc3Cl)c(C(N)=O)c2NC)C[C@@H]1COC [Example 248]
≤ 100 | C=CC(=O)N1C[C@@H](n2nc(C#Cc3cc4nc(C)n(C5COC5)c4cc3Cl)c(C(N)=O)c2NC)C[C@@H]1COC [Example 249, 3-{2-[6-chloro-2-methyl-1-(oxetan-3-yl)-1,3-benzodiazol-5-yl]ethynyl}-1-[(3S,5R)-5-(methoxymethyl)-1-(prop-2-enoyl)pyrrolidin-3-yl]-5-(methylamino)pyrazole-4-carboxamide]
≤ 100 | C=CC(=O)N1C[C@@H](n2nc(C#Cc3c(F)cc4c(ncn4C4CC4)c3F)c(C(N)=O)c2NCCO)C[C@@H]1COC [Example 251, 3-[2-(1-Cyclopropyl-4,6-difluoro-1,3-benzodiazol-5-yl)ethynyl]-5-[(2-hydroxyethyl)amino]-1-[(3S,5R)-5-(methoxymethyl)-1-(prop-2-enoyl)pyrrolidin-3-yl]pyrazole-4-carboxamide]
